The source made the active and inactive calls.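 The calls were made as follows: active = caspase luminescence falls with dose and the half-maximal concentration AC50 from the fitted curve is at or below a set limit; inconclusive = flat fit at 30 to 70% signal loss, or invalid fit; inactive = AC50 above the limit, or signal rises instead.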
What follows are compounds tested on INS-1E cytokine-induced caspase-3/7, Caspase-Glo luminescence, 48 h (assay: inhibitors of cytokine-induced caspase-3/7 activity, dose response, orthogonal assay for beta-cell apoptosis protection project, INS-1E rat cells, luminescence (AID 463206)).

Structure (SMILES)	AC50
C(#Cc1ccccc1)C[N+]1(CC#Cc2cccc3ccccc23)CCCC1	> 26 µM (inactive)
COc1ccc(NC(=O)/C(Cl)=C(/Cl)S(=O)Cc2ccc(C)cc2)cn1 (centres undefined)	> 26 µM (inactive)
COC(/C(=N/O)c1ccc(Cl)cc1)c1ccccc1 (centres undefined)	> 26 µM (inactive)
C=CC[n+]1c(-c2ccc(OCC)cc2)csc1NNC(=O)Nc1ccccc1	> 26 µM (inactive)
CCC(C)c1ccc(NC(=S)NC2CCN(Cc3ccccc3)CC2)cc1 (centres undefined)	> 26 µM (inactive)
Cc1[nH]n(-c2ccccc2)c(=O)c1/C=N/NC(=O)COc1ccccc1[N+](=O)[O-]	> 26 µM (inactive)
COC(=O)C1CN(C#N)N(c2ccc(Cl)cc2)C12c1ccccc1-c1ccccc12 (centres undefined)	> 26 µM (inactive)
O=S(=O)(/C(=C/c1ccc(C(F)(F)F)cc1)c1nc2ccccc2[nH]1)c1ccccc1	> 26 µM (inactive)
N/C(=N\NC(=O)c1sccc1OCc1ccc(Cl)cc1Cl)c1ccccn1	> 26 µM (inactive)
COc1ccc(N=Nc2ccc(O)c3ncccc23)cc1	> 12 µM (inactive)
O=C(NCc1nc(-c2ccc(C(F)(F)F)cc2)no1)Nc1cc(Cl)cc(Cl)c1	> 26 µM (inactive)
O=C(c1ccccc1)c1c2c(cc3sc4ccccc4[n+]13)-c1cccc3cccc-2c13	> 26 µM (inactive)
Cc1ccc2[nH]c3c(N4CCc5ccccc5C4)ncnc3c2c1	> 26 µM (inactive)
Oc1c(C(Nc2cccc(C(F)(F)F)c2)c2ccncc2)ccc2cccnc12 (centres undefined)	> 26 µM (inactive)
O=[N+]([O-])c1ccc(-[n+]2ccc3ccccc3c2)c([N+](=O)[O-])c1	> 26 µM (inactive)
O=C(c1cc(COc2cccc3cnccc23)on1)N1CCCC(CCCO)C1 (centres undefined)	> 26 µM (inactive)
CC(=O)Oc1ccc(N(C(C)=O)S(=O)(=O)c2cccs2)c2ccccc12	> 26 µM (inactive)
O=C(Nc1ccc(OC(F)F)cc1)Nc1cccc(C(F)(F)F)c1	> 26 µM (inactive)
O=[N+]([O-])c1ccc(N=Nc2c(Cl)cc(O)cc2Cl)cc1	> 26 µM (inactive)
CCCCOc1ccc(C(=O)NNC(=S)NC(=O)CC)cc1	> 26 µM (inactive)
Cn1nc(C(C)(C)C)cc1C(=O)NCc1ccc(N2CCCC2=O)cc1	> 26 µM (inactive)
CCS(=O)(=O)c1ncc(Cl)c(C(=O)Nc2ccc(S(=O)(=O)N3CCC(C)CC3)cc2)n1	> 26 µM (inactive)
COc1ccc([N+](=O)[O-])c(S(=O)(=O)c2ccccc2)n1	> 26 µM (inactive)

Structure (SMILES)	AC50
COc1ccc(CC(=O)Nc2cccc(-c3nnc(-c4cccc(C)c4)o3)c2)cc1OC	> 26 µM (inactive)
CNC[C@H](CC1CCCCC1)NC[C@H](Cc1ccccc1)NCCC12CC3CC(CC(C3)C1)C2	> 26 µM (inactive)
Oc1ccccc1/C=N/Nc1nc2ccccc2o1	> 26 µM (inactive)
CCn1c(/C=C/c2ccc([N+](=O)[O-])o2)nc2ccccc2c1=O	> 26 µM (inactive)
Nc1nonc1-n1nnc(C(=O)N/N=C/c2cc(Br)ccc2O)c1CSC1=NCCS1	> 26 µM (inactive)
Cc1cc(C(=O)CSc2nc3ccccc3c(=O)n2C)c(C)n1Cc1ccc2c(c1)OCO2	> 26 µM (inactive)
CC(C)(C)Sc1ccc2nc3c(n2c1)CCCC3	> 26 µM (inactive)
CCCCCCC[N+](CC)(CC)CCCCc1ccc(Cl)cc1	> 26 µM (inactive)
CCOc1ccc(-n2c(O)c(/C=N/Nc3nc(C)cc(C)n3)c3ccccc3c2=O)cc1	> 26 µM (inactive)
COc1ccc(-n2cc(-c3ccccc3)[n+]3c2CCCCC3)cc1	> 26 µM (inactive)
C#Cc1ccc([C@@H]2C=C(C(=O)N3CCN(Cc4ccccc4)CC3)O[C@H](OCCCCO)C2)cc1	> 26 µM (inactive)
c1ccc(-c2nnc(CSc3ccc4c(c3)OCCO4)o2)cc1	> 26 µM (inactive)
CC(=O)c1ccc(NC(=S)NCc2cccnc2)cc1	> 26 µM (inactive)
Oc1cccc(/C=N/Nc2ccc(Cl)nn2)c1O	> 26 µM (inactive)
COc1cc2c(cc1OC)-c1c(OC)c(OC)c(OC)c3ccnc(c13)C2=O	7.97 µM
O=S(=O)(c1ccc(Cl)cc1)N1CCN(Cc2ccc(O)c3ncccc23)CC1	> 26 µM (inactive)
CC1CN(S(=O)(=O)c2ccc(C(=O)NCCCn3ccnc3)cc2)CC(C)O1 (centres undefined)	> 26 µM (inactive)
O=S(=O)(c1ccc(NC(=S)NCc2cccnc2)cc1)N1CCCCC1	> 26 µM (inactive)
CCOc1ccc(-n2c(-c3ccccc3)c[n+]3c2CCC3)cc1	> 26 µM (inactive)
Cc1ccc(NC(=O)c2c(-c3c(F)cccc3Cl)noc2C)cc1F	> 12 µM (inactive)
CCc1cc(SC#N)cc(C)c1NC(=O)CCl	> 26 µM (inactive)
CC(=O)N1CCc2cc(S(=O)(=O)NCCC3=CCCCC3)ccc21	> 12 µM (inactive)
C=CCn1c(=NC(=O)c2cc(-c3cccs3)nc3ccccc23)sc2cc(S(N)(=O)=O)ccc21	> 26 µM (inactive)

Structure (SMILES)	AC50
O=[N+]([O-])c1ccc(O)c(-c2cc(C(F)(F)F)nc(-c3ccccc3)n2)c1	> 26 µM (inactive)
O=C(Nc1nc2ccc(F)cc2s1)C1CCN(S(=O)(=O)c2cc([N+](=O)[O-])ccc2Cl)CC1	> 26 µM (inactive)
N#CC1=C(N)Oc2c(ccc3cccnc23)C1c1cccnc1 (centres undefined)	> 26 µM (inactive)
Cc1cc(C(=O)N/N=C/c2cc(Br)ccc2OC(=O)c2ccccc2)n[nH]1	> 26 µM (inactive)
Cc1ccccc1NC(=S)N/N=C/c1ccc(O)cc1O	> 26 µM (inactive)
CCCCSc1nc2sc3c(c2c(=O)n1-c1ccc(C)cc1)CCN(C)C3	> 26 µM (inactive)
CC1=NNC(=O)/C1=C\c1cn(-c2ccccc2)nc1-c1cccs1	> 26 µM (inactive)
COc1cc(/C=C/C(=O)c2ccc([N+](=O)[O-])o2)ccc1O	> 26 µM (inactive)
COc1ccc(C(=O)NN/C(C)=C/C(=O)C(F)(F)C(F)(F)C(F)(F)F)cc1	> 26 µM (inactive)
O=C(Cc1ccc([N+](=O)[O-])cc1)Nc1cccnc1	> 26 µM (inactive)
CCCOc1cc(NCc2ccccc2)c2ncn(C(C)C)c2c1	> 26 µM (inactive)
CCOc1ccc2nc(NC(=O)c3cccc(-c4cc5ccccc5oc4=O)c3)sc2c1	> 26 µM (inactive)
Cc1ccccc1OCC(O)CNC1CCC(NCC(O)COc2ccccc2C)CC1 (centres undefined)	> 26 µM (inactive)
Cc1cccc(NC2=C(NC(=O)c3ccccc3)C(=O)c3ccccc3C2=O)c1	> 26 µM (inactive)
CN(C)c1ccc(-c2cc(O)c3ncccc3c2)cc1	> 26 µM (inactive)
COc1ccc(C(=O)NC(=S)NNC(=O)c2cnccn2)cc1OC	> 26 µM (inactive)
C/C(=N\NC(=O)C(c1ccccc1)c1ccccc1)c1ccccn1	> 26 µM (inactive)
O=C(NC(=S)NNC(=O)c1cnccn1)c1ccc(F)cc1	> 26 µM (inactive)
Cc1ccccc1OCCn1c(C)nc2ccccc21	> 26 µM (inactive)
Cc1sc2ncnc(NC3CCN(Cc4ccccc4)CC3)c2c1C	> 26 µM (inactive)
COc1ccc(O)c(/C=N/NC(=O)c2ccc(CSc3nc(C)cc(C)n3)cc2)c1	> 26 µM (inactive)
CC[n+]1ccc(/C=C/c2c[nH]c3ccccc23)cc1	> 26 µM (inactive)
Cc1onc(-c2c(Cl)cccc2Cl)c1C(=O)N/N=C(\N)COc1ccc(Cl)cc1	> 26 µM (inactive)
